Reference: patent publication US20080255206A1, “Rxr Agonists and Antagonists, Alone or in Combination with Ppar Ligands, in the Treatment of Metabolic and Cardiovascular Diseases” (priority 2005, published 2008)

Columns and labels:
[1] = target: T1, RXRα Homodimer (Homo sapiens, UniProt P19793); assay: RXRα homodimer activation (transactivation) assay; assay type: cell-based
T1 construct: expressed in transfected cells; host or cells: mammalian cells (BHK21, CV1, etc)
T1 sequence (P19793 1-462): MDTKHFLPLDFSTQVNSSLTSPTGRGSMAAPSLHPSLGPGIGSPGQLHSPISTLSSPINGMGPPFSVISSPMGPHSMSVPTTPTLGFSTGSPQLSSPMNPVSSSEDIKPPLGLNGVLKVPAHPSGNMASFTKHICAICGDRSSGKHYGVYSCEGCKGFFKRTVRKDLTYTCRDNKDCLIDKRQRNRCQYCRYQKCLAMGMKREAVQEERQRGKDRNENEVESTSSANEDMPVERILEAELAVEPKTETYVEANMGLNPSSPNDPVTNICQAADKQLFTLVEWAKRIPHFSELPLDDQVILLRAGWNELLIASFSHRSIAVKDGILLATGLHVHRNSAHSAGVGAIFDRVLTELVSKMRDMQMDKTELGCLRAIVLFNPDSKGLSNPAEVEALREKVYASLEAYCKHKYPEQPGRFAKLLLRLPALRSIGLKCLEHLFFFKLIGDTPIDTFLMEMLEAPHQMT
Procedure, shortened: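 GAL4 DNA-binding domain–LBD chimera co-transfected into mammalian cells (e.g. BHK21, CV1) with a GAL4-site luciferase reporter. EC50 and partial/full agonism judged against a reference or natural ligand.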

[2] = target: T2, RXRγ (Homo sapiens, UniProt P48443); assay: Retinoid activation assay, RXRγ (Schneider SL-3 cells, luciferase reporter); assay type: cell-based; details: read-out: Activation EC50 RXR γ
T2 sequence (P48443 1-463): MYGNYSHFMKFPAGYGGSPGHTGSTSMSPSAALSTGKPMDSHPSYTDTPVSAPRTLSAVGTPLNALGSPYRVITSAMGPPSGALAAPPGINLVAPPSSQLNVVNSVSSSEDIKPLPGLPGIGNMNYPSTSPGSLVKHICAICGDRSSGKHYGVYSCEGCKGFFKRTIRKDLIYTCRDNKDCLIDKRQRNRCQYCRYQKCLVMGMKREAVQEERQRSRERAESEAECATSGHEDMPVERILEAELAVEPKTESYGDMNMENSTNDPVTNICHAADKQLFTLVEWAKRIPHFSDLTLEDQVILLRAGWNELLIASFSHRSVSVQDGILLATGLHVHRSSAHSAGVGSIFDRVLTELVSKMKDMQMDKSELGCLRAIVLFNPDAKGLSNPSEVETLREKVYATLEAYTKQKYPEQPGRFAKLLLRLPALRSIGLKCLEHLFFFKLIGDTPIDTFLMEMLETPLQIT
Procedure, shortened: (§1)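 Drosophila Schneider SL-3 cells transiently transfected (Ca-phosphate, 3-4 h before assay) with full-length RXR cDNA plus luciferase reporter driven by three rat CRBP RXR response elements on an alcohol dehydrogenase promoter. Supernatant luciferase read after incubation; EC50 is concentration giving half-maximal activation.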

[3] = target: T3, RARβ (Homo sapiens, UniProt P10826); assay: Retinoid binding assay, RARβ; parameters: The DEF domains of RAR's and the full length RXR's, expressed in E.coli; made in house; host or cells: E. coli; details: read-out: Binding Affinity IC50 RAR β
T3 sequence (P10826 183-417 limits assumed): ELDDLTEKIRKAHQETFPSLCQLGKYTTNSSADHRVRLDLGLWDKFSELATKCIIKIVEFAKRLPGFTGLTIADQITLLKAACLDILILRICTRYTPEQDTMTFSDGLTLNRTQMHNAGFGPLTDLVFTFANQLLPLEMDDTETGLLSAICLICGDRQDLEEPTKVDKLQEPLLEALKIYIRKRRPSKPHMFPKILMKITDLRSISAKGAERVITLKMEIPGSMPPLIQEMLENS
Description: (§2) The DEF domains of RAR's and the full length RXR's, expressed in E.coli, are used to measure competitive retinoid binding. […] 9-cis retinoic acid (for RXR's), respectively. […] Separation of bound from free radioactivity is achieved by charcoal/dextran (RAR's) or by desalting columns (RXR's). […] Retinoid Activation Assays

[4] = target: T4, RARα (Homo sapiens, UniProt P10276); assay: Retinoid binding assay, RARα; parameters: The DEF domains of RAR's and the full length RXR's, expressed in E.coli; made in house; host or cells: E. coli; details: read-out: Binding Affinity IC50 RAR α
T4 sequence (P10276 183-417 limits assumed): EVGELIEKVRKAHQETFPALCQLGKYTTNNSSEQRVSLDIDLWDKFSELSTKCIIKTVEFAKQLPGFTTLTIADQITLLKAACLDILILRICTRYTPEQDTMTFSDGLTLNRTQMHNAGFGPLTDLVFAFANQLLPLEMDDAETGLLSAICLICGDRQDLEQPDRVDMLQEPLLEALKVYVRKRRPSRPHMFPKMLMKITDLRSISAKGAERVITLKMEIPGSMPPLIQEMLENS
Description: as §2

[5] = target: T5, RXRα (Homo sapiens, UniProt P19793); assay: Retinoid binding assay, RXRα; parameters: made in house; host or cells: E. coli; details: [3H] 9-cis retinoic acid 20 nM; read-out: Binding Affinity IC50 RXR α
T5 sequence (P19793 1-462): T1 sequence (P19793 1-462)
Description: as §2

[6] = target: T5, RXRα; assay: Retinoid activation assay, RXRα (Schneider SL-3 cells, luciferase reporter); assay type: cell-based; details: read-out: Activation EC50 RXR α
Procedure, shortened: as §1

[7] = target: T2, RXRγ; assay: Retinoid binding assay, RXRγ; parameters: made in house; host or cells: E. coli; details: [3H] 9-cis retinoic acid 20 nM; read-out: Binding Affinity IC50 RXR γ
Description: as §2

| EC50 [1] [nM] | EC50 [2] [nM] | IC50 [3] [nM] | IC50 [4] [nM] | IC50 [5] [nM] | EC50 [6] [nM] | IC50 [7] [nM] | Compound |
| --- | --- | --- | --- | --- | --- | --- | --- |
| > 10000 | ≥ 10000 | > 10000 | > 10000 | 24 | ≥ 10000 | 57 | CCOc1c(\C(C)=C/C=C/C(C)=C/C(=O)O)cc(C(C)(C)C)cc1C(C)(C)C [Compound 21, (2E,4E,6Z)-7-[3,5-Bis(1,1-dimethylethyl)-2-ethoxyphenyl]-3-methyl-2,4,6-octatrienoic acid/ethyl ester] |
| > 10000 | ≥ 10000 | 20 | 46 | 680 | ≥ 10000 | 660 | CCC1(CC)CCC(C)(C)c2cc(\C(C)=C/C=C/C(C)=C/C(=O)O)ccc21 [Compound 24, (2E,4E,6Z)-7-(5,5-Diethyl-8,8-dimethyl-5,6,7,8-tetrahydro-naphthalen-2-yl)-3-methyl-octa-2,4,6-trienoic acid] |
